Assay results: patent US4581460A, “Substituted 1-benzoyl-2-phenyliminoimidazolidine derivatives” (Chemie Linz Aktiengesellschaft, priority 1982, dated 1986)

Tested on: phenyl-p-quinone-induced writhing syndrome of the mouse
Experiment: Writhing test (phenyl-p-quinone-induced writhing syndrome of the mouse)
Type: in vivo
Settings: Mus musculus; oral, 60 min before i.p. phenyl-p-quinone; dose protecting 50% of the animals; read-out: ED50 (antiwrithing potency)
Protocol: 60 minutes after oral application of the test compounds mice were injected intraperitoneally with 0.3 ml of a 0.02% phenyl-p-quinone solution in a alcohol-water mixture (1:25 v/v). After the phenyl-p-quinone injection each mouse was observed during a span of 20 minutes.
The ED50 values (antiwrithing potency) were computed according to the method of N. R. Thompsom and C. S. Weil (Biometrics 8, 1952, 51-54, 249-263). The ED50 value refers to the dose (mg of test compound/kg of mouse) protecting 50% of the animals from pain in the writhing test.

**Q.** For `O=C(c1ccc(Cl)cc1)N1CCNC1=Nc1cccc(Cl)c1Cl` [1-p-chlorobenzoyl-2-(2,3-dichlorophenylimino)-imidazolidine], which ED50 is on record?
**A.** 1.26 mg/kg

**Q.** Which ED50 does the source give for `CC(C)Oc1ccc(C(=O)N2CCNC2=Nc2c(Cl)cccc2Cl)cc1` [1-p-isopropoxybenzoyl-2-(2,6-dichlorophenylimino)-imidazolidine] here?
**A.** 0.54 mg/kg

**Q.** For `O=C(c1cccc(Cl)c1)N1CCNC1=Nc1c(Cl)cccc1Cl` [1-m-chlorobenzoyl-2-(2,6-dichlorophenylimino)-imidazolidine], which ED50 is on record?
**A.** 0.81 mg/kg

**Q.** With `O=C(c1ccc(F)cc1)N1CCNC1=Nc1c(Cl)cccc1Cl` [1-p-fluorobenzoyl-2-(2,6-dichlorophenylimino)-imidazolidine] as the molecule, how does the ED50 read?
**A.** 0.81 mg/kg

**Q.** For `CS(=O)(=O)c1ccc(C(=O)N2CCNC2=Nc2cccc(Cl)c2Cl)cc1` [1-p-methylsulfonylbenzoyl-2-(2,3-dichlorophenylimino)-imidazolidine], which ED50 is on record?
**A.** 1.04 mg/kg

**Q.** For `CCOc1ccc(C(=O)N2CCNC2=Nc2c(Cl)cccc2Cl)cc1` [1-p-ethoxybenzoyl-2-(2,6-dichlorophenylimino)-imidazolidine], which ED50 is on record?
**A.** 0.98 mg/kg

**Q.** With `O=C(c1ccc(F)cc1)N1CCNC1=Nc1cccc(Cl)c1Cl` [1-p-fluorobenzoyl-2-(2,3-dichlorophenylimino)-imidazolidine] as the molecule, how does the ED50 read?
**A.** 1.15 mg/kg

**Q.** For `N#Cc1cccc(C(=O)N2CCNC2=Nc2c(Cl)cccc2Cl)c1` [1-m-cyanobenzoyl-2-(2,6-dichlorophenylimino)-imidazolidine], which ED50 is on record?
**A.** 0.25 mg/kg

**Q.** For `Cc1cc(C(=O)N2CCNC2=Nc2c(Cl)cccc2Cl)ccc1[N+](=O)[O-]` [1-(3-methyl-4-nitrobenzoyl)-2-(2,6-dichlorophenylimino)-imidazolidine], which ED50 is on record?
**A.** 0.68 mg/kg

**Q.** With `COc1ccc(C(=O)N2CCNC2=Nc2c(Cl)cccc2Cl)cc1OC` [1-(3,4-dimethoxybenzoyl)-2-(2,6-dichlorophenylimino)-imidazolidine] as the molecule, how does the ED50 read?
**A.** 4.36 mg/kg

**Q.** For `O=C(c1ccc(Cl)cc1)N1CCNC1=Nc1ccc(Cl)cc1Cl` [1-p-chlorobenzoyl-2-(2,4-dichlorophenylimino)-imidazolidine], which ED50 is on record?
**A.** 3.54 mg/kg

**Q.** With `COc1ccc(C(=O)N2CCNC2=Nc2c(C)cccc2Cl)cc1OC` [1-(3,4-dimethoxybenzoyl)-2-(2-chloro-6-methylphenylimino)-imidazolidine] as the molecule, how does the ED50 read?
**A.** 4.42 mg/kg

**Q.** With `O=C(c1ccc(F)cc1)N1CCNC1=Nc1cc(Cl)ccc1Cl` [1-p-fluorobenzoyl-2-(2,5-dichlorophenylimino)-imidazolidine] as the molecule, how does the ED50 read?
**A.** 10 mg/kg

**Q.** For `Cc1cccc(Cl)c1N=C1NCCN1C(=O)c1ccc(F)cc1` [1-p-fluorobenzoyl-2-(2-chloro-6-methylphenylimino)imidazolidine], which ED50 is on record?
**A.** 1 mg/kg

**Q.** Which ED50 does the source give for `COc1ccc(C(=O)N2CCNC2=Nc2c(Cl)cccc2Cl)cc1` [1-p-methoxybenzoyl-2-(2,6-dichlorophenylimino)-imidazolidine] here?
**A.** 0.63 mg/kg

**Q.** For `O=C(c1cccc(F)c1)N1CCNC1=Nc1cccc(Cl)c1Cl` [1-m-fluorobenzoyl-2-(2,3-dichlorophenylimino)-imidazolidine], which ED50 is on record?
**A.** 2.08 mg/kg

**Q.** For `O=C(c1ccc([N+](=O)[O-])cc1)N1CCNC1=Nc1ccc(Cl)cc1Cl` [1-p-nitrobenzoyl-2-(2,4-dichlorophenylimino)-imidazolidine], which ED50 is on record?
**A.** 1.77 mg/kg

**Q.** With `COc1ccc(C(=O)N2CCNC2=Nc2cccc(Cl)c2Cl)cc1` [1-p-methoxybenzoyl-2-(2,3-dichlorophenylimino)-imidazolidine] as the molecule, how does the ED50 read?
**A.** 0.99 mg/kg

**Q.** Which ED50 does the source give for `CS(=O)(=O)c1ccc(C(=O)N2CCNC2=Nc2c(Cl)cccc2Cl)cc1` [1-(p-methylsulfonylbenzoyl)-2-(2,6-dichlorophenylimino)-imidazolidine] here?
**A.** 0.75 mg/kg

**Q.** With `CCCOc1ccc(C(=O)N2CCNC2=Nc2c(Cl)cccc2Cl)cc1` [1-(p-n-propoxybenzoyl)-2-(2,6-dichlorophenylimino)-imidazolidine] as the molecule, how does the ED50 read?
**A.** 0.46 mg/kg

**Q.** For `Cc1ccc(C(=O)N2CCNC2=Nc2c(Cl)cccc2Cl)cc1F` [1-(3-fluoro-4-methylbenzoyl)-2-(2,6-dichlorophenylimino)-imidazolidine], which ED50 is on record?
**A.** 0.5 mg/kg

Same assay, conditions: oral, 60 min before i.p. phenyl-p-quinone; dose protecting 50% of the animals

**Q.** For `CCCCOc1ccc(C(=O)N2CCNC2=Nc2cccc(Cl)c2Cl)cc1` [1-p-n-butoxybenzoyl-2-(2,3-dichlorophenylimino-imidazolidine], which “ED50 (antiwrithing potency)” value is on record?
**A.** 4.49 mg of test compound/kg of mous

Same assay, conditions: po; writhing test, mouse; dose protecting 50% of the animals; read-out: ED50 in the writhing test

**Q.** For `N#Cc1ccc(C(=O)N2CCNC2=Nc2c(Cl)cccc2Cl)cc1` [1-p-cyanobenzoyl-2-(2,6-dichlorophenylimino)-imidazolidine], which ED50 is on record?
**A.** 0.55 mg/kg

**Q.** Which ED50 does the source give for `CC(C)=CCN1CCC2(C)c3cc(O)ccc3CC1C2C` (centres unmarked) [Pentazocin, reference compound] here?
**A.** 168 mg/kg

Tested on: not given
Experiment: not given
Settings: U.S. Pat. No. 4,142,051; cited from earlier work

**Q.** For `O=C(C1CC=CCC1)N1CCNC1=Nc1c(Cl)cccc1Cl` (centres unmarked) [1-(cyclohex-3-en-1-oyl)-2-(2,6-dichlorophenylimino)-imidazolidine], which “analgesic properties (prior art)” value is on record?
**A.** exhibit analgesic properties

Tested on: not given
Experiment: not given
Settings: U.S. Pat. No. 3,988,345; U.S. Pat. No. 4,389,403; cited from earlier work

**Q.** Which “antihypertensive / hypotensive effect (prior art)” value does the source give for `O=C(c1ccccc1)N1CCNC1=Nc1c(Cl)cccc1Cl` [benclonidine, 1-benzoyl-2-(2,6-dichlorophenylimino)-imidazolidine] here?
**A.** marked antihypertensive effect
